Experiment [1] has as its target T1, T1R1/T1R3 receptor (Felis catus, UniProt E3UMS2). Format: cell-based. Conditions: for EC50 +buffer (alone): compound alone in buffer; for Activity: overall call for modulation of T1R1/T1R3: active or N/A (= Not active). The source says:
HEK293 cells that stably express T1R3 and inducibly express T1R1 were exposed to transmembrane compounds alone or in combination with one or more amino acids and/or one or more nucleotides to activate the umami receptor. Activation of the T1R1/T1R3 receptor was detected by a change in intracellular calcium levels using a calcium sensitive fluorescent dye. Cells that express T1R3 but not T1R1 were used as a control. A FLIPR® Tetra or a FlexStation® 3 was used for data capture.
In each experiment, serial dilutions of up to 10 mM of the transmembrane compound were added to the T1R1/T1R3-expressing cells.

For experiment [2], the target named is T1, T1R1/T1R3 receptor. In words: Example 8: agonist screening of transmembrane compounds on T1R1/T1R3 in HEK293 cells. The conditions noted are these: for agonist profile assessment: transmembrane compound alone, in words; for T1R1/T1R3 agonist: transmembrane compound tested at 0.01, 0.1 and 1 mM, HEK293 cells expressing T1R1/T1R3, calcium dye and/or luminescent reporter. Format: cell-based, cat. On the procedure:
HEK293 cells that stably express T1R3 and inducibly express T1R1 were exposed to a transmembrane compound. Activation of the T1R1/T1R3 receptor was detected by a change in intracellular calcium levels using a calcium sensitive fluorescent dye and/or a luminescent reporter system. […] A FLIPR® Tetra or a FlexStation® 3 was used for data capture.
Each transmembrane compound was tested at concentrations of 0.01 mM, 0.1 mM, and 1 mM. […] To generate the dose response curves, the transmembrane compound was tested at concentrations of between 0.0001 mM and 1.0 mM in the presence of GMP and Ala.

Experiment [3] concerns the target T1, T1R1/T1R3 receptor. In words: Example 8: PAM screening of transmembrane compounds with GMP and Ala on T1R1/T1R3 in HEK293 cells. Format: cell-based, cat. The conditions noted are these: for PAM profile assessment: in the presence of GMP and Alanine, in words; for T1R1/T1R3 PAM: compound at 0.01, 0.1, 1 mM in combination with GMP+Ala mixtures (T1-T4), PAM if response to the combination is greater than the sum of the responses to compound alone and to GMP+Ala alone. The source says:
HEK293 cells that stably express T1R3 and inducibly express T1R1 were exposed to transmembrane compound alone or in combination with Ala and GMP to activate the umami receptor. Activation of the T1R1/T1R3 receptor was detected by a change in intracellular calcium levels using a calcium sensitive fluorescent dye and/or a luminescent reporter system. […] A FLIPR® Tetra or a FlexStation® 3 was used for data capture.
Dose response curves were generated for each transmembrane compound at concentrations of 0 (buffer only), 0.01, 0.1 and 1 mM, wherein each of the three concentrations of transmembrane compound was tested in combination with 0.03 mM GMP+100 mM Ala (T1); 0.6 mM GMP+10 mM Ala (T2); 0.1 mM GMP+60 mM Ala (T3) and 0.3 mM GMP+60 mM Ala (T4). The T4 mixture was also tested in a 2-fold dilution series (the T4(X) Concentration). In these experiments, the first test concentration was 2× (2 times) the T4 concentration. The subsequent test concentrations were 2-fold dilutions from that (1×, 0.5× etc.). This dilution series was tested with or without the addition of the test compound at a constant 0.3 mM concentration.
Activation of the umami receptor was also determined in the presence of 1 mM GMP+100 mM Ala to generate a “maximum” umami receptor activation level.

The target in experiment [4] is cat T1R1/T1R3 receptor (Felis catus, UniProt E3UMS2). Put plainly: cell-based. From the text: HEK293 cells that stably express T1R3 and inducibly express T1R1 were exposed to nucleotide derivatives alone or in combination with one or more amino acids and/or one or more nucleotides to activate the umami receptor. Activation of the T1R1/T1R3 receptor was detected by a change in intracellular calcium levels using a calcium sensitive fluorescent dye and/or a luminescent reporter system. Cells that express T1R3 but not T1R1 were used as a control. A FLIPR® Tetra or a FlexStation® 3 was used for data capture.

Setting [5] is: threshold in the presence of 0.2 mM IMP, CNBD = Could not be determined.
Where [6] appears, read: in the presence of 0.2 mM IMP, CNBD = Could not be determined.

Counter-ions that a name gives are not always drawn. Like-named read-outs stand apart in the source and are kept apart here.

Regarding `Nc1ccccc1C(=O)NCCc1ccccc1` [2-amino-N-phenethylbenzamide], in experiment [1] (setting [5]), the “Thres +IMP (0.2 mM)” value was 0.01 mM.
For the compound `N[C@@H](Cc1c[nH]cn1)C(=O)O` [L-Histidine, L-histidine], in experiment [1] (setting [5]), the “Thres +IMP (0.2 mM)” value worked out at 10.0 mM.
Regarding `Cl.N[C@@H](Cc1ccccc1)C(=O)OCc1ccccc1` [L-Phenylalanine benzyl ester hydrochloride], the agonist profile assessment result in experiment [2] is reported as “agonist”. Further, in experiment [3], the PAM profile assessment result is “PAM activity”.
`O=C(NCCc1ccccc1)c1cccnc1` [N-phenethylnicotinamide]: in experiment [1] (setting [5]), the “Thres +IMP (0.2 mM)” value turned out to be 0.03 mM.
Turning to `COC(=O)[C@H](CC(C)C)NCc1ccccc1.Cl` [Benzyl-L-leucine methyl ester hydrochloride], in experiment [2], the agonist profile assessment result is given as “agonist”. In addition, the PAM profile assessment entry in experiment [3] is “PAM activity”.
Turning to `COC(=O)[C@@H](Cc1ccccc1)NCc1ccccc1.Cl` [Formula 16, N-Benzyl-D-Phenylalanine methyl ester hydrochloride], in experiment [2], the T1R1/T1R3 agonist entry is listed as “Yes”. Moreover, in experiment [3], the “T1R1/T1R3 PAM” value is “Yes”.
For `N[C@@H](Cc1ccccc1)C(=O)O` [L-Phenylalanine, reference compound], the “Max resp ΔF/F +IMP (0.2 mM)” value in experiment [1] (setting [6]) was 0.5900 ΔF/F. In addition, in experiment [1] (setting [5]), the “Thres +IMP (0.2 mM)” value amounted to 0.1 mM.
In the case of `O=C1C(=O)N(Cc2ccccc2)C(=S)N1Cc1ccccc1` [Formula 13, 1,3-dibenzyl-2-thioxoimidazolidine-4,5-dione], the T1R1/T1R3 agonist result in experiment [2] is “No”. The “T1R1/T1R3 PAM” value in experiment [3] is reported as “No”.
`Nc1nc2c(ncn2[C@@H]2O[C@H](COP(=O)(O)OP(=O)(O)O)[C@@H](O)[C@H]2O)c(=S)[nH]1` [6-Thioguanosine-5′-O-diphosphate]: the “EC50 +buffer (alone)” value in experiment [1] (CNBD = Could not be determined) is recorded as “CNBD”. Further, in experiment [1] (setting [6]), the “EC50 +IMP (0.2 mM)” value is “CNBD” and the “Max resp ΔF/F +IMP (0.2 mM)” value is given as 0.0720 ΔF/F. The “Thres +IMP (0.2 mM)” value in experiment [1] (setting [5]) was “CNBD”.
Regarding `O=C(O)[C@H](Cc1ccc(O)cc1)NCc1ccccc1` [Formula 22, N-Benzyl-L-Tyrosine], the T1R1/T1R3 agonist result in experiment [2] is listed as “No”. The “T1R1/T1R3 PAM” value in experiment [3] is “No”.
As to `N[C@@H](Cc1ccc(O)cc1)C(=O)OCc1ccccc1` [Formula 21, L-Tyrosine benzyl ester], the T1R1/T1R3 agonist entry in experiment [2] is reported as “No”. Moreover, in experiment [3], the “T1R1/T1R3 PAM” value was “No”.
As for `C=C[C@H]1C[N@@]2CC[C@H]1C[C@H]2[C@H](O)c1ccnc2ccc(OC)cc12` [Quinine HCL, reference compound], the “EC50 +buffer (alone)” value in experiment [1] (CNBD = Could not be determined) is “CNBD”.
In the case of `O=C(CN1C(=O)C(=O)N(Cc2ccccc2)C1=O)c1ccc2c(c1)OCCCO2` [Formula 8, 1-benzyl-3-(2-(3,4-dihydro-2H-benzo[b][1,4]dioxepin-7-yl)-2-oxoethyl)imidazolidine-2,4,5-trione], in experiment [2], the T1R1/T1R3 agonist result is given as “No”. Besides, in experiment [3], the “T1R1/T1R3 PAM” value was “Weak PAM” and the PAM profile assessment entry was “PAM activity”.
As to `O=C(O)C1CCCCC1C(=O)Nc1cc(Cl)cc(Cl)c1` (stereo not drawn) [2-((3,5-dichlorophenyl)carbamoyl)cyclohexanecarboxylic acid], in experiment [1] (setting [5]), the “Thres +IMP (0.2 mM)” value was determined as 0.03 mM.
`N[C@@H](CS)C(=O)O` [L-Cysteine, cysteine]: the “Max resp ΔF/F +IMP (0.2 mM)” value in experiment [1] (setting [6]) is 0.5800 ΔF/F. In experiment [1] (setting [5]), the “Thres +IMP (0.2 mM)” value turned out to be 10.0 mM.
Turning to `N[C@@H](CCC(=O)O)C(=O)[O-].[Na+]` [MSG (Glutamic acid sodium salt), monosodium glutamate], in experiment [1] (setting [6]), the “EC50 +IMP (0.2 mM)” value is “CNBD” and the “Max resp ΔF/F +IMP (0.2 mM)” value is listed as “CNBD”. The “Max resp % of Ala +IMP (0.2 mM)” value in experiment [1] (in the presence of 0.2 mM IMP, relative to Ala, CNBD = Could not be determined) was “CNBD”. For the same compound, in experiment [1] (setting [5]), the “Thres +IMP (0.2 mM)” value is listed as “CNBD”.
In the case of `N[C@@H](Cc1ccc(O)cc1)C(=O)O` [L-Tyrosine, tyrosine], the “Thres +IMP (0.2 mM)” value in experiment [1] (setting [5]) is listed as 3.0 mM.
`O=C(NCCCCNC(=O)c1cccnc1)c1cccnc1` [N,N′-(butane-1,4-diyl)dinicotinamide]: in experiment [1], the “EC50 +Alanine (20 mM)” value is “CNBD”. Further, the “EC50 +buffer (alone)” value in experiment [1] (CNBD = Could not be determined) is listed as “CNBD”. Further, the “Thres +IMP (0.2 mM)” value in experiment [1] (setting [5]) was 0.1 mM.
Take `O=C(CN1C(=O)C(=O)N(Cc2ccccc2)C1=O)c1ccc(Cl)s1` [1-benzyl-3-(2-(5-chlorothiophen-2-yl)-2-oxoethyl)imidazolidine-2,4,5-trione]: the PAM profile assessment entry in experiment [3] is listed as “PAM activity”.
`O=C(NCCc1ccccc1)c1ccc2c(c1)OCO2` [N-phenethylbenzo[d][1,3]dioxole-5-carboxamide]: in experiment [1], the “EC50 +Alanine (20 mM)” value is recorded as “CNBD”. In addition, the “Thres +IMP (0.2 mM)” value in experiment [1] (setting [5]) was 0.01 mM.
For `CCOC(=O)NC(=O)C(c1ccccc1)c1ccccc1` [Ro 01-6128, reference compound], in experiment [1], the “Thres +Alanine (20 mM)” value came to 0.3 mM and the result was active. For the same compound, the “Thres +IMP (0.2 mM)” value in experiment [1] (setting [5]) is 0.01 mM.
As for `O=C(NCCc1ccccc1)c1ccccc1` [N-phenethylbenzamide], the “Max resp ΔF/F +IMP (0.2 mM)” value in experiment [1] (setting [6]) is listed as 0.9800 ΔF/F. In addition, the “Thres +IMP (0.2 mM)” value in experiment [1] (setting [5]) was determined as 0.01 mM.
For `CCCCc1nn(CC(=O)N2CCCC2)c(=O)n1Cc1ccccc1` [4-benzyl-3-butyl-1-(2-oxo-2-(pyrrolidin-1-yl)ethyl)-1H-1,2,4-triazol-5(4H)-one], the “Thres +IMP (0.2 mM)” value in experiment [1] (setting [5]) is 0.1 mM.
In the case of `CC(C)CC(NC(=O)c1ccccc1)C(N)=O` (racemic), the “Thres +IMP (0.2 mM)” value in experiment [1] (setting [5]) is recorded as 0.1 mM.
Regarding `O=C[C@H](O)[C@@H](O)[C@H](O)[C@H](O)CO` [D-Glucose, reference compound], the “EC50 +buffer (alone)” value in experiment [1] (CNBD = Could not be determined) is “CNBD”.
On to `O=P(O)(O)OP(=O)(O)OP(=O)(O)OC[C@H]1O[C@@H](n2cnc3c(Cl)ncnc32)[C@H](O)[C@@H]1O` [6-Chloropurine riboside-5′-O-triphosphate], for which, in experiment [1], the “Thres +Alanine (20 mM)” value is reported as 0.01 mM and the outcome was active. The “Thres +IMP (0.2 mM)” value in experiment [1] (setting [5]) is listed as 0.003 mM.
As to `N[C@@H](CO)C(=O)O` [L-Serine, serine], the “Thres +IMP (0.2 mM)” value in experiment [1] (setting [5]) amounted to 3.0 mM.
Same read-out and setting: to `O=C(NCCc1c[nH]c2ccccc12)c1cccnc1` [N-(2-(1H-indol-3-yl)ethyl)nicotinamide, N-(2-(1H-Indol-3-yl)ethyl)nicotinamide] belongs 0.003 mM; to `C[C@H](N)C(=O)O` [L-Alanine, reference compound], 3.0 mM.
In the case of `N[C@@H](Cc1c[nH]c2ccccc12)C(=O)O` [L-Tryptophan, tryptophan], in experiment [1] (setting [5]), the “Thres +IMP (0.2 mM)” value is 0.1 mM.
Take `O=C1CC(=O)N(Cc2ccccc2)C(=O)N1Cc1ccccc1` [1,3-dibenzylpyrimidine-2,4,6(1H,3H,5H)-trione]: the agonist profile assessment result in experiment [2] is listed as “agonist activity”. Also, in experiment [1] (setting [5]), the “Thres +IMP (0.2 mM)” value was 0.1 mM.
Turning to `CC(=O)Nc1ccc(C(=O)Nc2cc(-c3ccccc3)nn2CCO)cc1` [4-acetamido-N-(1-(2-hydroxyethyl)-3-phenyl-1H-pyrazol-5-yl)benzamide], in experiment [1], the “EC50 +Alanine (20 mM)” value is “CNBD” and the “Thres +Alanine (20 mM)” value was “CNBD”. Also, the “EC50 +buffer (alone)” value in experiment [1] (CNBD = Could not be determined) was “CNBD”. Besides, the “Thres +IMP (0.2 mM)” value in experiment [1] (setting [5]) is “CNBD”.
For `CNc1ccccc1C(=O)O[C@H]1C[C@H](n2cnc3c(N)ncnc32)O[C@@H]1COP(=O)(O)O` [2′-Deoxy-3′-O-(N′-methylanthraniloyl)adenosine-5′-O-monophosphate], the “Thres” value in experiment [4] was 0.0025 mM. In experiment [4] (in the presence of 20 mM alanine, read-out: EC50-with Ala), the EC50 worked out at 10 µM.
For the compound `O=C(O)[C@@H]1CCCN1` [L-Proline, proline], in experiment [1], the “EC50 +IMP (0.2 mM)” value is reported as “CNBD”, the “Max resp % of Ala +IMP (0.2 mM)” value is given as “CNBD”, the “Max resp ΔF/F +IMP (0.2 mM)” value is on record as “CNBD” and the “Thres +IMP (0.2 mM)” value is “CNBD”.

(Values after patent US20190021380A1 (priority 2014, published 2019).)
